Reference: the NIST ThermoML archive (doi:10.1021/je9009915)

Conditions: Liquid

FCC(F)(F)F [1,1,1,2-tetrafluoroethane]
Conditions	vapor or sublimation pressure [kPa]
303.45 K	775.7
308.44 K	892.2
313.3 K	1018.8
318.39 K	1165.4
323.3 K	1319
328.26 K	1492.4
333.3 K	1683.7
338.24 K	1889.6
343.23 K	2115.3
